pIC50: −log10 of the molar value.
How the values were obtained:
TIP60-KAT5 [1] = biological target: T1, TIP60-KAT5 (Homo sapiens, UniProt Q92993); assay: Acetyltransferase biochemical assay (AlphaScreen), KAT5; conditions: Table 1 (TIP60-KAT5); 0.4 μM Acetyl coenzyme A, histone H4, 10 nM enzyme
T1 construct: encoding amino acid residues 2 to 461 (Uniprot Q92993-2) of human KAT5 isoform; made in house; host or cells: E. coli BL21 DE3

MOZ-KAT6A [2] = biological target: T2, MOZ-KAT6A (Homo sapiens, UniProt Q92794, A567V); assay: Acetyltransferase biochemical assay (AlphaScreen), KAT6A; conditions: Table 2 (MOZ-KAT6A); 10 μM Acetyl coenzyme A, histone H3.1, 5 nM enzyme
T2 construct: encoding amino acid residues 507 to 778 (Uniprot Q92794-1) of human KAT6A; made in house; host or cells: E. coli BL21 DE3

MOZ-KAT6A [3] = biological target: T2, MOZ-KAT6A; assay: Revised Acetyltransferase Biochemical Assay, KAT6A; conditions: Table 8 (MOZ-KAT6A), 1 μM Acetyl coenzyme A
HBO-KAT7 [4] = biological target: T3, HBO-KAT7 (Homo sapiens, UniProt O95251); assay: Revised Acetyltransferase Biochemical Assay, KAT7; conditions: Table 9 (HBO-KAT7), 1 μM Acetyl coenzyme A
T3 construct: encoding amino acid residues 325 to 611 (Uniprot 095251-1) of human KAT7; made in house; host or cells: E. coli BL21 DE3 RIL

TIP60-KAT5 [5] = biological target: T1, TIP60-KAT5; assay: Revised Acetyltransferase Biochemical Assay, KAT5; conditions: 10 nM KAT5, 1 μM AcCoA, 100 nM histone H4, 90 min
MOF-KAT8 = biological target: T4, MOF-KAT8 (Homo sapiens, UniProt Q9H7Z6); assay: Revised Acetyltransferase Biochemical Assay, KAT8
T4 sequence (Q9H7Z6 177-447): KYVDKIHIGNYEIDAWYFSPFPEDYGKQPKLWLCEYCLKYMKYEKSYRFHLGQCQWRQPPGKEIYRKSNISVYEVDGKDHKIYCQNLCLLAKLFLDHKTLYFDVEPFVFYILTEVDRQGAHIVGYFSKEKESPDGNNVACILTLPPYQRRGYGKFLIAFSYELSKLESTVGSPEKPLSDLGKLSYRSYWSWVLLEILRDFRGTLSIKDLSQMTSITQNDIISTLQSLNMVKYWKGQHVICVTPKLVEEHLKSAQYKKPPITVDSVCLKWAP

HBO-KAT7 [6] = biological target: T3, HBO-KAT7; assay: Acetyltransferase biochemical assay (AlphaScreen), KAT7; conditions: Table 3 (HBO-KAT7); 0.4 μM Acetyl coenzyme A, histone H3.1, 40 nM enzyme

T3 sequence (O95251 with tags, fused parts or gaps): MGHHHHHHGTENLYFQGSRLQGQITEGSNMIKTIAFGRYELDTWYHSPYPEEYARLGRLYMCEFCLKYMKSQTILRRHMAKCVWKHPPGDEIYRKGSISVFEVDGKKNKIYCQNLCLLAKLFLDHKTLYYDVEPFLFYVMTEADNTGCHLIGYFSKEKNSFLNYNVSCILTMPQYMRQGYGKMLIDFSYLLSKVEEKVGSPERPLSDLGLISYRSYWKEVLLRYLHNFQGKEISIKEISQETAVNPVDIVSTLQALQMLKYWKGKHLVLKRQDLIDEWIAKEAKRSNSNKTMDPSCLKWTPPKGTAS
T2 sequence (Q92794 507-778 A567V limits assumed): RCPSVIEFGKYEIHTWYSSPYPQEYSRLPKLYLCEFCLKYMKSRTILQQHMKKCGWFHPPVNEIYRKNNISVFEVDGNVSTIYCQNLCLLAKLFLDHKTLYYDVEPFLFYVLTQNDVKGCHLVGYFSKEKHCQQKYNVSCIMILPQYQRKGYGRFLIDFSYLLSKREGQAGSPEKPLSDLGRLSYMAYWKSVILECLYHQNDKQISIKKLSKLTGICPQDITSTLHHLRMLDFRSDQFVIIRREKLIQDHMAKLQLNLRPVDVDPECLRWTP
T1 sequence (Q92993 2-461 isoform Q92993-2): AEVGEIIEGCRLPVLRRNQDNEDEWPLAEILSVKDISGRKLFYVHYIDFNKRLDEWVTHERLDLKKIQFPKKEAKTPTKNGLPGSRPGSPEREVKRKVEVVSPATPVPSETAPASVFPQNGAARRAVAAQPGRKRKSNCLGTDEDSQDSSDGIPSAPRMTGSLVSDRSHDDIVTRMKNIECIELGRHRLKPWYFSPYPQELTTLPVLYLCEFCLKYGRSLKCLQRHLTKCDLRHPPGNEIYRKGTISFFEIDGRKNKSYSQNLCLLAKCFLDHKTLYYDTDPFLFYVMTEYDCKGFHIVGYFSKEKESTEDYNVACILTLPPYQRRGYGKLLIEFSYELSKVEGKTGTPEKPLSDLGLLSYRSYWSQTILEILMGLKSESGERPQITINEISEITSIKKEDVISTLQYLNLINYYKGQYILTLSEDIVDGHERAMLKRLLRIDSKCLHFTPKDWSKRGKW

| pIC50 (TIP60-KAT5 [1]) | pIC50 (MOZ-KAT6A [2]) | pIC50 (MOZ-KAT6A [3]) | pIC50 (HBO-KAT7 [4]) | pIC50 (TIP60-KAT5 [5]) | pIC50 (MOF-KAT8) | pIC50 (HBO-KAT7 [6]) | SMILES |
| --- | --- | --- | --- | --- | --- | --- | --- |
| < 3.90 | 4.42 | 5.29 | 4.55 | 4.22 | < 3.90 | – | O=C(NCC(CO)c1ccccc1)C1=Nc2ccccc2S(=O)(=O)N1 (stereo not shown) [Example 2, N-(3-Hydroxy-2-phenylpropyl)-2H-benzo[e][1,2,4]thiadiazine-3-carboxamide 1,1-dioxide] |
| 4.48 | 5.87 | 6.57 | 6.00 | 4.83 | < 3.90 | – | COc1ccc2c(c1)S(=O)(=O)NC(C(=O)NCC(c1ccccc1)c1ccccc1)=N2 [Example 19, N-(2,2-diphenylethyl)-7-methoxy-2H-benzo[e][1,2,4]thiadiazine-3-carboxamide 1,1-dioxide] |
| < 3.90 | 4.54 | – | – | – | – | 4.07 | O=C(NCCc1ccccc1O)C1=Nc2ccccc2S(=O)(=O)N1 [Example 29, N-(2-Hydroxyphenethyl)-2H-benzo[e][1,2,4]thiadiazine-3-carboxamide 1,1-dioxide] |
| 4.82 | 5.08 | – | – | – | – | 5.23 | O=C(NCCc1ccccc1I)C1=Nc2ccccc2S(=O)(=O)N1 [Example 31, N-(2-Iodophenethyl)-2H-benzo[e][1,2,4]thiadiazine-3-carboxamide 1,1-dioxide] |
| < 3.90 | 4.22 | – | – | – | – | 4.50 | N#Cc1ccccc1CCNC(=O)C1=Nc2ccccc2S(=O)(=O)N1 [Example 35, N-(2-Cyanophenethyl)-2H-benzo[e][1,2,4]thiadiazine-3-carboxamide 1,1-dioxide] |
| – | – | 7.49 | 6.39 | 6.14 | 4.57 | – | O=C(NCC(c1ccccc1)c1nc(CO)no1)C1=Nc2ccc(I)cc2S(=O)(=O)N1 (stereo not shown) [Example 59, N-(2-(3-(hydroxymethyl)-1,2,4-oxadiazol-5-yl)-2-phenylethyl)-7-iodo-2H-benzo[e][1,2,4]thiadiazine-3-carboxamide 1,1-dioxide] |
| 4.06 | 4.45 | – | – | – | – | 4.53 | O=C(NCCc1ccccn1)C1=Nc2ccc(Br)cc2S(=O)(=O)N1 [Example 79] |
| < 3.90 | 4.23 | – | – | – | – | 3.98 | O=C(NCCc1cccnc1)C1=Nc2ccc(Br)cc2S(=O)(=O)N1 [Example 80] |
| 4.39 | 4.38 | – | – | – | – | 3.95 | Nc1ccc(CCNC(=O)C2=Nc3ccc(I)cc3S(=O)(=O)N2)cc1 [Example 100] |
| 4.57 | 4.97 | – | – | – | – | 4.22 | O=C(NCCc1cccc(O)c1)C1=Nc2ccc(I)cc2S(=O)(=O)N1 [Example 102] |
| 4.68 | 4.92 | – | – | – | – | 4.63 | O=C(NCCc1ccccn1)C1=Nc2ccc(I)cc2S(=O)(=O)N1 [Example 107] |
| 4.11 | 4.94 | – | – | – | – | 4.30 | O=C(NCCc1cccnc1)C1=Nc2ccc(I)cc2S(=O)(=O)N1 [Example 108] |
| 4.73 | 5.34 | – | – | – | – | 5.39 | COC(=O)C(CNC(=O)C1=Nc2ccccc2S(=O)(=O)N1)c1ccccc1 (stereo not shown) [Example 112, Methyl 3-(1,1-dioxido-2H-benzo[e][1,2,4]thiadiazine-3-carboxamido)-2-phenylpropanoate] |
| 5.64 | – | 7.34 | 6.39 | 6.68 | < 3.90 | 5.52 | O=C(NCCc1ccccc1C(F)(F)F)C1=Nc2ccc(I)cc2S(=O)(=O)N1 [Example 118] |
| 5.91 | – | 7.77 | 6.85 | 6.65 | 4.38 | 5.45 | O=C(NCC(c1ccccc1)c1ncco1)C1=Nc2ccc(C(F)(F)F)cc2S(=O)(=O)N1 (stereo not shown) [Example 120] |
| < 3.90 | – | 6.60 | 4.61 | 4.23 | < 3.90 | < 3.90 | COC(=O)NC(CNC(=O)C1=Nc2ccccc2S(=O)(=O)N1)c1ccccc1 (stereo not shown) [Example 129] |
| – | – | 6.33 | 5.78 | 4.88 | 5.31 | – | O=C(NCC(c1cccc(I)c1)c1ncco1)C1=Nc2ccccc2S(=O)(=O)N1 (stereo not shown) [Example 160, N-(2-(3-iodophenyl)-2-(oxazol-2-yl)ethyl)-2H-benzo[e][1,2,4]thiadiazine-3-carboxamide 1,1-dioxide] |
| – | – | 6.60 | 6.41 | 5.56 | 4.46 | – | O=C(NCC(F)(F)c1ccccc1OC(F)F)C1=Nc2ccc(Cl)cc2S(=O)(=O)N1 [Example 232, 7-chloro-N-(2-(2-(difluoromethoxy)phenyl)-2,2-difluoroethyl)-2H-benzo[e][1,2,4]thiadiazine-3-carboxamide 1,1-dioxide] |

More lines, now with the values behind:

| SMILES | pIC50 (TIP60-KAT5 [1]) | pIC50 (MOZ-KAT6A [2]) | pIC50 (MOZ-KAT6A [3]) | pIC50 (HBO-KAT7 [4]) | pIC50 (TIP60-KAT5 [5]) | pIC50 (MOF-KAT8) | pIC50 (HBO-KAT7 [6]) |
| --- | --- | --- | --- | --- | --- | --- | --- |
| O=C(NCC(CCO)c1ccccc1)C1=Nc2ccccc2S(=O)(=O)N1 (stereo not shown) [Example 3, N-(4-Hydroxy-2-phenylbutyl)-2H-benzo[e][1,2,4]thiadiazine-3-carboxamide 1,1-dioxide] | 4.02 | 5.12 | 5.31 | 4.30 | 4.00 | 4.91 | – |
| COC(=O)c1ccc2c(c1)S(=O)(=O)NC(C(=O)NCC(c1ccccc1)c1ccccc1)=N2 [Example 20] | 4.53 | 5.22 | 6.31 | 5.90 | 4.86 | 4.20 | – |
| O=C(NCCc1ccccc1-c1cccnc1)C1=Nc2ccccc2S(=O)(=O)N1 [Example 34, N-(2-(Pyridin-3-yl)phenethyl)-2H-benzo[e][1,2,4]thiadiazine-3-carboxamide 1,1-dioxide] | < 3.90 | 4.29 | 5.24 | 4.94 | 4.15 | – | 4.22 |
| O=C(NCC(c1ccccc1)n1cccc1)C1=Nc2ccccc2S(=O)(=O)N1 (stereo not shown) [Example 54, N-(2-phenyl-2-(1H-pyrrol-1-yl)ethyl)-2H-benzo[e][1,2,4]thiadiazine-3-carboxamide 1,1-dioxide] | 4.24 | 5.05 | – | – | – | – | 5.40 |
| O=C(NCC(c1ccccc1F)n1cccc1)C1=Nc2ccccc2S(=O)(=O)N1 (stereo not shown) [Example 55, N-(2-(2-fluorophenyl)-2-(1H-pyrrol-1-yl)ethyl)-2H-benzo[e][1,2,4]thiadiazine-3-carboxamide 1,1-dioxide] | 4.44 | 5.25 | – | – | – | – | 5.35 |
| O=C(NCC(c1ccccc1)c1ncco1)C1=Nc2cnccc2S(=O)(=O)N1 (stereo not shown) [Example 98] | < 3.90 | 4.44 | – | – | – | – | 4.16 |
| O=C(NCC(c1ccccc1)c1ncco1)C1=Nc2ncccc2S(=O)(=O)N1 (stereo not shown) [Example 99] | < 3.90 | 4.80 | – | – | – | – | 5.04 |
| O=C(NCC(c1ccccc1)c1ncco1)C1=Nc2ccc(-c3cscn3)cc2S(=O)(=O)N1 (stereo not shown) [Example 135] | 5.50 | 6.77 | 7.33 | 6.38 | 6.19 | – | 5.60 |
| CS(=O)(=O)Nc1ccc2c(c1)S(=O)(=O)NC(C(=O)NCC(c1ccccc1)c1ncco1)=N2 (stereo not shown) [Example 153, 7-(Methylsulfonamido)-N-(2-(oxazol-2-yl)-2-phenylethyl)-2H-benzo[e][1,2,4]thiadiazine-3-carboxamide 1,1-dioxide] | 4.41 | – | 7.27 | 6.17 | 5.47 | 4.70 | 5.47 |
| O=C(NCC(c1ncco1)c1ccccc1CO)C1=Nc2ccccc2S(=O)(=O)N1 (stereo not shown) [Example 157] | – | – | 5.06 | 4.65 | < 3.90 | < 3.90 | – |
| O=C(NCC(c1cccc(-c2ccccc2)c1)c1ncco1)C1=Nc2ccccc2S(=O)(=O)N1 (stereo not shown) [Example 158] | – | – | 5.76 | 5.26 | 4.57 | 4.51 | – |
| O=C(NCC(c1ncco1)c1ccccc1-c1ccccc1)C1=Nc2ccccc2S(=O)(=O)N1 (stereo not shown) [Example 161] | – | – | 6.57 | 5.36 | 5.04 | 4.64 | – |
| CC(CNC(=O)C1=Nc2ccccc2S(=O)(=O)N1)(c1ccccc1)c1ccccc1 [Example 206] | 4.43 | 5.02 | 5.86 | 5.92 | 4.86 | – | 5.14 |
| N#Cc1cccc(C(CNC(=O)C2=Nc3ccccc3S(=O)(=O)N2)c2ncco2)c1 (stereo not shown) [Example 227, N-(2-(3-Cyanophenyl)-2-(oxazol-2-yl)ethyl)-2H-benzo[e][1,2,4]thiadiazine-3-carboxamide 1,1-dioxide] | – | – | 5.87 | 5.35 | 4.01 | < 3.90 | – |

— patent US20210380548A1, “Fused [1,2,4]Thiadiazine Derivatives Which Act as KAT Inhibitors of the MYST Family” (CTxT Pty Limited, priority 2017, published 2021)
